Data from paper PMC11588265, “Auto QSAR-based active learning docking for hit identification of potential inhibitors of Plasmodium falciparum Hsp90 as antimalarial agents” (PLOS ONE, 2024).
Values joined by “and” are separate entries in the source; they are usually repeats but may differ in a detail not shown here. Identical values can stand only once. Like-named read-outs stand apart in the source and are kept apart here.

Tests used:
[1] = system: human fibroblast cell line; parameters: method as in Everson et al., 2021; details: ref Everson et al., 2021, cited from earlier work
[2] = system: HepG2; parameters: method as in Everson et al., 2021; details: ref Everson et al., 2021, cited from earlier work
[3] = system: P. falciparum 3D7; details: cited from earlier work
[4] = target: PfHsp90-NTD (Plasmodium falciparum, UniProt Q8IC05); test: Surface plasmon resonance (MP-SPR) binding to immobilized PfHsp90-NTD
PfHsp90-NTD, sequence (Q8IC05 entry or part of it): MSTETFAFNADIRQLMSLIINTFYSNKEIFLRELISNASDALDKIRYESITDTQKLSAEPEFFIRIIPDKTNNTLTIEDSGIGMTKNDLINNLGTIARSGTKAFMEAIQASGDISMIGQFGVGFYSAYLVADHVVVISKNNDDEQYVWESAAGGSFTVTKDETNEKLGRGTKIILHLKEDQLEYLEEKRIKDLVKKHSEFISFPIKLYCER
Protocol: The NTD of PfHsp90 was expressed and purified as described in [29] and 20μg/ml of the protein was used to study the binding affinities of selected ligands using BioNavis Navi 420A ILVES multi-parametric surface plasmon resonance (MP-SPR) system (BioNavis, Finland) as previously described. Briefly, PfHsp90-NTD was immobilized to a Carboxymethyl dextran coated sensor slide (BioNavis SPR102- CMD-3D). The sensor slide was activated with 0.1 M EDC/0.05 M NHS. At pH 5, PfHsp90-NTD suspended in 5 mM of sodium acetate was immobilized on one channel of the 3 CMD chip. 1 M ethanolamine HCl was used to deactivate the chip by removing excess NHS = EDC, and the sensor cleaned with NaCl/NaOH unspecific binding molecules. Varying concentrations (0-2000/5000 nM) of compounds FTN-T2 and FTN-T5 were injected and introduced to the flow cell, allowing binding to the surface. Data Viewer (BioNavis, Finland) and Trace Drawer software version 1.8 (Ridgeview instruments, Uppsala, Sweden) were used to process and analyze the steady-state equilibrium constant data and estimate the binding affinities.

[5] = system: Chinese Hamster Ovarian (CHO) cells; test: In vitro cytotoxicity, MTT assay, CHO cells; type: cell-based; details: for IC50: CHO cells, MTT, 48 h, read-out: In vitro IC50 Mammalian cells; for Mammalian cells (SI): selectivity index, CHO vs PfNF54
Protocol: (§1) Selectivity of the compounds for the parasites was determined using two cytotoxicity assays both of which were conducted at the H3D Centre. Compounds were screened against the mammalian cells, Chinese Hamster Ovarian (CHO) and hepatocellular carcinoma (HepG2), using the 3-(4,5-dimethylthiazol-2-yl)-2,5-diphenyltetrazoliumbromide (MTT) assay. Cells were plated to a density of 10^5 cells/well in 96-well plates and allowed to attach for 24h. After that compounds were added at various concentrations from 50μM to 16nM and the cells incubated for a further 48h. Emetine was used as the control. After that MTT was added and plates were read 4h later. ‘‘Survival” was plotted against concentration and the IC50-values were obtained using a non-linear dose-response curve fitting analysis via the Dotmatics software platform.

[6] = system: hepatocellular carcinoma (HepG2); test: In vitro cytotoxicity, MTT assay, HepG2 cells; type: cell-based, human; details: for IC50: HepG2 cells, MTT, 48 h; for HepG2 (SI): selectivity index, HepG2 vs PfNF54
Protocol: as §1

[7] = system: P. falciparum NF54 strain; test: In vitro anti-Plasmodium assay (parasite lactate dehydrogenase); type: cell-based; details: P. falciparum NF54 drug-sensitive strain, read-out: In vitro IC50 PfNF54
Protocol: In vitro anti-Plasmodial assays were conducted at the H3D testing centre at the University of Cape Town. All 15 commercially available compounds were evaluated for anti-Plasmodium activity using a parasite lactate dehydrogenase assay as a marker for parasite survival, as previously described by. Briefly, the parasites were synchronized at the ring stage using d-sorbitol in water. Approximately 2 mg/mL stock solutions of reference drugs, chloroquine and artesunate, were prepared in water and DMSO respectively then stored in -20°C. Test compounds and reference drugs were serially diluted to give 10 concentrations with a final volume of 100 μL in each well. Parasites were incubated in the presence of the compounds at 37°C under hypoxic conditions (4% CO2 and 3% O2 in N2) for 72 h. The absorbance was measured at 620 nm on a microplate reader. Survival was plotted against concentration and the IC50-values were obtained using a non-linear dose-response curve fitting analysis via the Dotmatics software platform.

[8] = system: Plasmodium; details: known inhibitor; ref (11); read-out: anti-Plasmodium IC50; cited from earlier work
[9] = P. falciparum 3D7, chloroquine-sensitive strain, ref Everson et al., 2021, read-out: In vitro IC50 Pf3D7
[10] = Plasmodium falciparum, NF54, 72 h

For `O=C(N[C@H]1CCc2ccccc21)C1CCN(c2ncccc2-c2nc(-c3ccccc3)no2)CC1` [Compound 10], the IC50 ([1]; human fibroblast cell line, read-out: In vitro IC50 Mammalian cells) is listed as greater than 24000 nM, the “Mammalian cells (SI)” value ([1]; selectivity index) is listed as greater than 21 and the IC50 ([2]; HepG2, read-out: In vitro IC50 HepG2) is listed as greater than 24000 nM. For the same molecule, the “HepG2 (SI)” value ([2]; selectivity index) was greater than 21 and the IC50 [3, 9] was 1110 ± 970 nM.

With `Nc1ncnc2c1nc(Br)n2[C@@H]1O[C@H](CO)[C@@H](O)[C@H]1O` [FTN-T2] the Kd ([4]; SPR, immobilized PfHsp90-NTD, read-out: equilibrium constant denoting affinity KD) was 7 nM and 7.11 nM, the IC50 ([5]; Cricetulus griseus) was greater than 50000 nM and the IC50 ([6]; Homo sapiens) was 1500 nM. For the same molecule, the “HepG2 (SI)” value [6] was 0 and the IC50 [7, 10] was 4490 ± 1510 nM.

In the case of `COC1=C2C[C@@H](C)C[C@H](OC)[C@H](O)[C@@H](C)/C=C(\C)[C@H](OC(N)=O)[C@@H](OC)/C=C\C=C(/C)C(=O)NC(=CC1=O)C2=O` [Geldanamycin, geldanamycin], the IC50 [8] is given as 20 nM.

In the case of `Cn1c(=O)ccn([C@@H]2O[C@H](CO)[C@@H](O)[C@H]2O)c1=O` [FTN-T5], the Kd ([4]; read-out: equilibrium constant denoting affinity KD) is reported as 19.9 nM and 19 nM, the “average SI” value ([5]; CHO and HepG2 cell lines) is reported as no less than 30 and the IC50 ([5]; Cricetulus griseus) is reported as greater than 50000 nM. The “Mammalian cells (SI)” value [5] was greater than 35, the “selectivity index (SI)” value ([6]; HepG2/CHO cells vs PfNF54) was no less than 29 and the IC50 ([6]; Homo sapiens) was 42300 nM. The “HepG2 (SI)” value [6] was 29, the IC50 ([7]; 72 h) was 1440 ± 500 nM and the IC50 [7, 10] was less than 1500 nM.

For `O=C(NCc1ccc2c(c1)OCO2)C1CCN(c2ncnc3onc(-c4cccc(F)c4)c23)CC1` [Compound 7], the IC50 [3, 9] is listed as 980 ± 654 nM.

For `Nc1nc2c(ncn2[C@H]2C[C@H](F)[C@@H](CO)O2)c(=O)[nH]1` [FTN-T9], the IC50 [5] was greater than 50000 nM, the “Mammalian cells (SI)” value [5] was greater than 10 and the IC50 [6] was greater than 50000 nM. For the same molecule, the “HepG2 (SI)” value [6] was greater than 10 and the IC50 ([7]; 72 h) was 4860 ± 1140 nM.

In the case of `COc1ccc2c(c1)[nH]c1c(C)nccc12` [Harmine, reference compound], the Kd ([4]; equilibrium constant denoting affinity KD, SPR, immobilized PfHsp90-NTD) is given as 18.2 nM and the IC50 ([3]; P. falciparum, ref Shahinas et al., 2010, read-out: In vitro IC50 PfNF54/ Pf3D7) is given as 50 nM.
